Assays:
Assay type in all cases: functional
Rattus norvegicus [1] = experiment: Anti-inflammatory activity in Albino Rattus norvegicus (rat) assessed as inhibition of carrageenan-induced paw edema at 20 mg/kg, po administered 1 hr prior to carrageenan challenge measured after 5 hr by mercury displacement technique
Rattus norvegicus [2] = experiment: Anti-inflammatory activity in Albino Rattus norvegicus (rat) assessed as inhibition of carrageenan-induced paw edema at 20 mg/kg, po administered 1 hr prior to carrageenan challenge measured after 2 hr by mercury displacement technique
Rattus norvegicus [3] = experiment: Anti-inflammatory activity in Albino Rattus norvegicus (rat) assessed as inhibition of carrageenan-induced paw edema at 20 mg/kg, po administered 1 hr prior to carrageenan challenge measured after 1 hr by mercury displacement technique
Rattus norvegicus [4] = experiment: Anti-inflammatory activity in Albino Rattus norvegicus (rat) assessed as inhibition of carrageenan-induced paw edema at 10 mg/kg, po administered 1 hr prior to carrageenan challenge measured after 5 hr by mercury displacement technique
Rattus norvegicus [5] = experiment: Anti-inflammatory activity in Albino Rattus norvegicus (rat) assessed as inhibition of carrageenan-induced paw edema at 10 mg/kg, po administered 1 hr prior to carrageenan challenge measured after 2 hr by mercury displacement technique
Rattus norvegicus [6] = experiment: Anti-inflammatory activity in Albino Rattus norvegicus (rat) assessed as inhibition of carrageenan-induced paw edema at 10 mg/kg, po administered 1 hr prior to carrageenan challenge measured after 1 hr by mercury displacement technique

O=[N+]([O-])c1ccc(/C=N/NC(=S)Nn2c(S)nnc2-c2ccncc2)cc1
inhibition in vivo at 20 mg/kg (Rattus norvegicus [1]): 41.5%
inhibition in vivo at 20 mg/kg (Rattus norvegicus [2]): 34.5%
inhibition in vivo at 20 mg/kg (Rattus norvegicus [3]): 14.3%

S=C(N/N=C/c1ccccc1Cl)Nn1c(S)nnc1-c1ccncc1
inhibition in vivo at 20 mg/kg (Rattus norvegicus [1]): 67.3%
inhibition in vivo at 20 mg/kg (Rattus norvegicus [2]): 62.5%
inhibition in vivo at 20 mg/kg (Rattus norvegicus [3]): 39.1%

S=C(N/N=C/c1ccc(Cl)cc1)Nn1c(S)nnc1-c1ccncc1
inhibition in vivo at 20 mg/kg (Rattus norvegicus [1]): 76.9%
inhibition in vivo at 20 mg/kg (Rattus norvegicus [2]): 69.6%
inhibition in vivo at 20 mg/kg (Rattus norvegicus [3]): 45.5%

COc1cc(/C=N/NC(=S)Nn2c(S)nnc2-c2ccncc2)cc(OC)c1OC
inhibition in vivo at 20 mg/kg (Rattus norvegicus [1]): 61.4%
inhibition in vivo at 20 mg/kg (Rattus norvegicus [2]): 52.9%
inhibition in vivo at 20 mg/kg (Rattus norvegicus [3]): 36.2%

COc1ccc(/C=N/NC(=S)Nn2c(S)nnc2-c2ccncc2)cc1O
inhibition in vivo at 20 mg/kg (Rattus norvegicus [1]): 48.4%
inhibition in vivo at 20 mg/kg (Rattus norvegicus [2]): 44.4%
inhibition in vivo at 20 mg/kg (Rattus norvegicus [3]): 28%

COc1ccc2c(c1)c(CC(=O)O)c(C)n2C(=O)c1ccc(Cl)cc1 [INDOMETHACIN]
inhibition in vivo at 10 mg/kg (Rattus norvegicus [4]): 84%
inhibition in vivo at 10 mg/kg (Rattus norvegicus [5]): 73%
inhibition in vivo at 10 mg/kg (Rattus norvegicus [6]): 52%

From ChEMBL document CHEMBL3044575, “Synthesis, anti-inflammatory activity, and QSAR study of some Schiff bases derived from 5-mercapto-3-(4-pyridyl)-4H-1,2,4-triazol-4-yl-thiosemicarbazide” (2013)
